Test system: 3T3-L1 preadipocytes
Test: Inhibition of preadipocyte differentiation, Oil Red O lipid accumulation
Assay type: cell-based
Details: positive control, 100 μM baicalin
Description: In order to select a strain having excellent obesity prevention and treatment effects among the strains obtained in the Example 1, an experiment was conducted to identify the ability thereof to inhibit differentiation of preadipocytes into adipocytes. To induce the differentiation of 3T3-L1 preadipocytes, the preadipocytes were dispensed into each 96-well plate at 1.25×10^5 cells/well. After 2 days, the medium was changed so that the cells were completely fused on the 4th day. MDI (0.5 mM 3-isobutyl-1-methylxanthine), 1 μM dexamethasone and 1 μg/mL of insulin solution added to 10% FBS DMEM medium. Subsequently, in the experimental group, the culture supernatant of the strain obtained in Example 1 was added to the medium at a concentration of 1,000 μg/mL. […] Adipocyte differentiation was completed after 6 days, and the amount of lipid accumulated in the cell was measured using Oil Red 0 (Sigma, USA), which reacts specifically with the lipid drop generated in the cell. […] For quantification, distilled water was removed, isopropyl alcohol was added to a completely dry well, and then, absorbance was measured at 520 nm. Then, a degree of inhibition of adipocyte differentiation ability was analyzed by comparing the produced lipid drop content with that of the MDI treatment group based on the measured absorbance.

**Q.** For `O=C(O)[C@H]1O[C@@H](Oc2cc3oc(-c4ccccc4)cc(=O)c3c(O)c2O)[C@H](O)[C@@H](O)[C@@H]1O` [baicalin], which relative lipid content is on record?
**A.** 81.40%
